The subject of assay [1] is LDL receptor knockout mice (B6.129S7-Ldlrtm1Her). Description: Example 11 LDL receptor knockout mice. The format is in vivo, mouse. The settings on record: low fat control diet (D12328) with vs without test article. The source says: Mice lack an enzyme found in humans, cholesterol ester transfer protein (CETP), which is responsible for the transfer of cholesterol from high density lipoproteins (HDL) to the ApoB-containing lipoproteins such as very low density lipoproteins (VLDL) and low density lipoproteins (LDL). Consequently, LDL cholesterol levels in wild-type mice are very low compared to those seen in humans. The low density lipoprotein receptor (LDLR) is involved with clearing LDL and lipoprotein remnants containing apoE. If the LDLR is inactivated, LDL cholesterol levels rise to levels seen in humans. On a normal rodent diet, the LDL cholesterol levels in LDLR deficient mice are elevated compared to wild-type mice. […]
In these studies and the accompanying figures, Diet D12328 from Research Diets is referred to as the “Low Fat” or Control diet, while Diet D12079B from Research Diets is referred to as the “Western” diet. […] The Test Article content was calculated such that ad libitum consumption by the animals would deliver doses (in mg of Test Article per Kg animal weight per day) approximating those listed in Table 6.
Animals were maintained on the diets for twelve weeks. Body weights were recorded weekly. […] The serum was analyzed for total cholesterol, LDL cholesterol, HDL cholesterol, and triglycerides (TG). […]

For assay [2], the target named is T1, mouse group 1B PLA2 (mps PLA2) (Mus musculus, UniProt Q9Z0Y2).
T1 construct: made in house; host or cells: E. coli
Kind of assay: Example 8 fluorimetric PLA2 inhibition assay (PPyrPM), mouse enzyme. In kind it is biochemical. The source says:
In this example, a fluorimetric assay procedure was used to evaluate the indole and indole-related compounds of the invention as inhibitors of group 1B phospholipase A2 (PLA2) from human, mouse and porcine. A description of this assay is found in articles: Leslie, C C and Gelb, M H (2004) Methods in Molecular Biology “Assaying phospholipase A2 activity”, 284:229-242; Singer, A G, et al. (2002) Journal of Biological Chemistry “Interfacial kinetic and binding properties of the complete set of human and mouse groups I, II, V, X, and XII secreted phospholipases A2”, 277:48535-48549, which are incorporated herein as references.
In general, this assay used a phosphatidylmethanol substrate with a pyrene fluorophore on the terminal end of the sn-2 fatty acyl chain. Without being bound by theory, close proximity of the pyrenes from neighboring phospholipids in a phospholipid vesicle caused the spectral properties to change relative to that of monomeric pyrene. Bovine serum albumin was present in the aqueous phase and captured the pyrene fatty acid when it is liberated from the glycerol backbone owing to the PLA2-catalyzed reaction. However, a potent inhibitor can inhibit the liberation of pyrene fatty acid from the glycerol backbone. […] The effect of a given inhibitor and inhibitor concentration on human, mouse and porcine phospholipase was determined.
Recombinant human and mouse group 1B PLA2 were cloned and expressed in E. coli as insoluble inclusion bodies. The inclusion bodies were isolated and purified by sonicating cell pellet in lysis buffer (50 mM Tris-HCl pH 7.0, 250 mM NaCl, 0.5% Triton 100), centrifugation at 12,000×g, and washing three times in washing buffer (20 mM Tris-HCl pH 7.0, 250 mM NaCl, 0.5% Triton 100). […]
The following procedure was performed to evaluate the inhibitory potency of the evaluated compounds. • 1. […]

Each structure is given as a SMILES string.

Consider one molecule from patent US20090318492A1, “INDOLE COMPOUNDS HAVING C4-ACIDIC SUBSTITUENTS AND USE THEREOF AS PHOSPHOLIPASE-A2 INHIBITORS” (priority 2005, published 2009).

T1 sequence (Q9Z0Y2 23-146): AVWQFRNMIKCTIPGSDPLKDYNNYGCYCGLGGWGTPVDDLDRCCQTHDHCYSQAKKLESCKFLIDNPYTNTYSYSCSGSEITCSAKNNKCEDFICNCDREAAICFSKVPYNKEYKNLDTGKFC

Regarding `Cc1c(C(=O)C(N)=O)c2c(OCC(=O)NS(=O)(=O)CCCC(=O)O)cccc2n1Cc1ccccc1` [ILY-IV-40, 4-[2-(3-Aminooxalyl-1-benzyl-2-methyl-1H-indol-4-yloxy)-acetylsulfamoyl]-butyric acid], the “effect in animals fed a low fat control diet” value in assay [1] is given as “No or little effect”. The 50% inhibitory concentration (IC50) – broadly, the concentration at which inhibition is half-maximal – in assay [2] was determined as 1360 nM.
